Laboratory results taken from ChEMBL document CHEMBL3351364 (J Med Chem, 2014).

Assays:
Hepatitis C virus [1] = assay: Antiviral activity against HCV genotype 1b infected in human Huh7 cells after 3 days by cell-based replicon assay; assay type: functional, Hepacivirus hominis; details: Huh-7, 72 h
[2] = Cmax in Sprague-Dawley rat at 3 mg/kg, po; assay type: ADME, organism-based; design: dose 3 mg/kg, route oral; details: in vivo
[3] = Half life in Sprague-Dawley rat at 3 mg/kg, po; assay type: ADME, organism-based; design: dose 3 mg/kg, route oral; details: in vivo
[4] = Oral bioavailability in Sprague-Dawley rat at 5 mg/kg; assay type: ADME, organism-based; details: in vivo
[5] = Oral bioavailability in beagle dog at 2.3 mg/kg; assay type: ADME, organism-based, Canis lupus familiaris; details: in vivo
[6] = Cmax in monkey at 3 mg/kg, po; assay type: ADME, organism-based, Macaca mulatta; design: dose 3 mg/kg, route oral; details: rhesus monkey, in vivo
[7] = Half life in monkey at 3 mg/kg, po; assay type: ADME, organism-based, Macaca mulatta; design: dose 3 mg/kg, route oral; details: rhesus monkey, in vivo
[8] = Lipophilicity, log P of the compound; assay type: physicochemical; details: octanol/water
[9] = Oral bioavailability in Sprague-Dawley rat at 1 mg/kg; assay type: ADME, organism-based; details: in vivo
[10] = Cmax in beagle dog at 2.5 mg/kg, po; assay type: ADME, organism-based, Canis lupus familiaris; design: dose 2.5 mg/kg, route oral; details: in vivo
[11] = Half life in beagle dog at 2.5 mg/kg, po; assay type: ADME, organism-based, Canis lupus familiaris; design: dose 2.5 mg/kg, route oral; details: in vivo
[12] = Oral bioavailability in beagle dog at 2.5 mg/kg; assay type: ADME, organism-based, Canis lupus familiaris; details: in vivo
[13] = Cmax in monkey at 2.5 mg/kg, po; assay type: ADME, organism-based, Macaca mulatta; design: dose 2.5 mg/kg, route oral; details: rhesus monkey, in vivo
[14] = Half life in monkey at 2.5 mg/kg, po; assay type: ADME, organism-based, Macaca mulatta; design: dose 2.5 mg/kg, route oral; details: rhesus monkey, in vivo
[15] = Oral bioavailability in monkey at 2.5 mg/kg; assay type: ADME, organism-based, Macaca mulatta; details: rhesus monkey, in vivo
Hepatitis C virus [16] = assay: Antiviral activity against HCV genotype 1b infected in human Huh7 cells after 3 days by cell-based replicon assay in presence of 10% fetal bovine serum; assay type: functional, Hepacivirus hominis; details: Huh-7, 72 h
Hepatitis C virus [17] = assay: Antiviral activity against HCV genotype 1b infected in human Huh7 cells after 3 days by cell-based replicon assay in presence of 40% normal human serum; assay type: functional, Hepacivirus hominis; details: Huh-7, 72 h
[18] = Cytotoxicity against human HuH7 cells; assay type: cell-based, Huh-7
[19] = Half life in Sprague-Dawley rat at 1 mg/kg, iv as 30 mins infusion; assay type: ADME, organism-based; design: dose 1 mg/kg, route intravenous; details: in vivo
[20] = Half life in beagle dog at 1 mg/kg, iv as 30 mins infusion; assay type: ADME, organism-based, Canis lupus familiaris; design: dose 1 mg/kg, route intravenous; details: in vivo
[21] = Oral bioavailability in beagle dog at 1 mg/kg; assay type: ADME, organism-based, Canis lupus familiaris; details: in vivo
[22] = Cmax in monkey at 5 mg/kg, po; assay type: ADME, organism-based, Macaca mulatta; design: dose 5 mg/kg, route oral; details: rhesus monkey, in vivo
[23] = Oral bioavailability in monkey at 5 mg/kg; assay type: ADME, organism-based, Macaca mulatta; details: rhesus monkey, in vivo
[24] = Half life in monkey at 1 mg/kg, iv as 30 mins infusion; assay type: ADME, organism-based, Macaca mulatta; design: dose 1 mg/kg, route intravenous; details: rhesus monkey, in vivo
[25] = Oral bioavailability in Sprague-Dawley rat at 2 mg/kg; assay type: ADME, organism-based; details: in vivo
[26] = Oral bioavailability in Sprague-Dawley rat at 30 mg/kg; assay type: ADME, organism-based; details: in vivo
[27] = Half life in Sprague-Dawley rat at 5 mg/kg, iv as 30 mins infusion; assay type: ADME, organism-based; design: dose 5 mg/kg, route intravenous; details: in vivo
[28] = Oral bioavailability in beagle dog at 2 mg/kg; assay type: ADME, organism-based, Canis lupus familiaris; details: in vivo

COC(=O)N[C@H](C(=O)N1CCC[C@H]1c1ncc(-c2ccc(-c3ccc(-c4cnc([C@@H]5CC6(CN5C(=O)[C@@H](NC(=O)OC)C(C)C)OCCO6)[nH]4)cc3)cc2)[nH]1)C(C)C
EC50 (Hepatitis C virus [1]): 0.0074 nM

COC(=O)N[C@@H](C(=O)N1CCC[C@H]1c1ncc(C#CC#Cc2cnc([C@@H]3CCCN3C(=O)[C@H](NC(=O)OC)C(C)C)[nH]2)[nH]1)C(C)C
EC50 (Hepatitis C virus [1]): 1.33 nM

COC(=O)N[C@H](C(=O)N1CCC[C@H]1c1ncc(-c2ccc(-c3ccc(-c4cnc([C@@H]5CCCN5C(=O)[C@@H](NC(=O)OC)C(C)C)[nH]4)cc3)cc2)[nH]1)C(C)C
Cmax [2]: 728 nM | half-life [3]: 1.5 h | bioavailability [4]: 50% | bioavailability [5]: 58.5% | Cmax [6]: 500 nM | half-life [7]: 3 h | logP [8]: 6.33 | EC50 (Hepatitis C virus [1]): 0.003 nM

COC(=O)N[C@@H](C(=O)N1CCC[C@H]1c1ncc(-c2ccc(C#CC#Cc3ccc(-c4cnc([C@@H]5CCCN5C(=O)[C@H](NC(=O)OC)C(C)C)[nH]4)cc3)cc2)[nH]1)C(C)C
EC50 (Hepatitis C virus [1]): 0.384 nM

COC(=O)N[C@@H](C(=O)N1CCC[C@H]1C(=O)Nc1ccc([C@H]2CC[C@@H](c3ccc(NC(=O)[C@@H]4CCCN4C(=O)[C@H](NC(=O)OC)C(C)C)cc3)N2c2ccc(C(C)(C)C)cc2)cc1)C(C)C
Cmax [2]: 3360 nM | half-life [3]: 15.9 h | bioavailability [9]: 6.2% | Cmax [10]: 720 nM | half-life [11]: 7.3 h | bioavailability [12]: 57% | Cmax [13]: 320 nM | half-life [14]: 5 h | bioavailability [15]: 35% | EC50 (Hepatitis C virus [1]): 0.005 nM

CN(C)[C@@H](C(=O)N1CCC[C@H]1c1nc2cc(-c3cnc(-c4ccc5[nH]c([C@@H]6CCCN6C(=O)[C@@H](c6ccccc6)N(C)C)nc5c4)o3)ccc2[nH]1)c1ccccc1
EC50 (Hepatitis C virus [1]): < 4.6 nM

COC(=O)N[C@H](C(=O)N1CCC[C@H]1c1ncc(-c2ccc(-c3csc4c(-c5ccc6[nH]c([C@@H]7CCCN7C(=O)[C@H](NC(=O)OC)c7ccccc7)nc6c5)csc34)cc2)[nH]1)C(C)C
EC50 (Hepatitis C virus [1]): 0.003 nM

COC(=O)N[C@H](C(=O)N1CCC[C@@H]1c1ncc(-c2ccc(C#CC#Cc3cnc([C@H]4CCCN4C(=O)[C@H](NC(=O)OC)C(C)C)[nH]3)cc2)[nH]1)C(C)C
EC50 (Hepatitis C virus [16]): 0.409 nM | EC50 (Hepatitis C virus [17]): 0.737 nM | CC50 [18]: 30300 nM

COC(=O)N[C@@H](C(=O)N1CCC[C@H]1c1nc2ccc(C#Cc3ccc4nc([C@@H]5CCCN5C(=O)[C@H](NC(=O)OC)C(C)C)[nH]c4c3)cc2[nH]1)C(C)C
EC50 (Hepatitis C virus [1]): 0.055 nM

c1cc2oc(-c3ccc(-c4ncc([C@@H]5CCCN5)[nH]4)cc3)cc2cc1-c1cnc([C@@H]2CCCN2)[nH]1
half-life [19]: 2 h | half-life [20]: 7.7 h | bioavailability [21]: 108% | Cmax [22]: 180 nM | bioavailability [23]: 12% | half-life [24]: 3 h | bioavailability [25]: 38%

COC(=O)N[C@@H](C(=O)N1CCC[C@H]1c1nc2ccc(C#CC#Cc3ccc4nc([C@@H]5CCCN5C(=O)[C@H](NC(=O)OC)C(C)C)[nH]c4c3)cc2[nH]1)C(C)C
EC50 (Hepatitis C virus [1]): 0.009 nM

COC(=O)N[C@@H](C(=O)N1CCCC1c1ncc(C#CC#Cc2ccc(-c3cnc(C4CCCN4C(=O)[C@H](NC(=O)OC)C(C)C)[nH]3)cc2)[nH]1)C(C)C (single isomer, unassigned; 13k)
EC50 (Hepatitis C virus [16]): 994 nM | EC50 (Hepatitis C virus [17]): 7440 nM | CC50 [18]: 108000 nM

COC(=O)N[C@H](C(=O)N1CCC[C@@H]1c1ncc(C#CC#Cc2ccc(-c3cnc([C@H]4CCCN4C(=O)[C@H](NC(=O)OC)C(C)C)[nH]3)cc2)[nH]1)C(C)C (single isomer, unassigned)
EC50 (Hepatitis C virus [16]): 0.079 nM | EC50 (Hepatitis C virus [17]): 0.243 nM | CC50 [18]: 24700 nM

COC(=O)N[C@H](C(=O)N1CCCC1c1ncc(C#CC#Cc2ccc(-c3cnc(C4CCCN4C(=O)[C@@H](NC(=O)OC)C(C)C)[nH]3)cc2)[nH]1)C(C)C (single isomer, unassigned; 13j)
EC50 (Hepatitis C virus [16]): 8880 nM | EC50 (Hepatitis C virus [17]): 6900 nM | CC50 [18]: 59700 nM

COC(=O)N[C@H](C(=O)N1CCCC1c1ncc(C#CC#Cc2ccc(-c3cnc(C4CCCN4C(=O)[C@@H](NC(=O)OC)C(C)C)[nH]3)cc2)[nH]1)C(C)C (single isomer, unassigned; 13i)
EC50 (Hepatitis C virus [16]): 5.37 nM | EC50 (Hepatitis C virus [17]): 36.1 nM | CC50 [18]: 34700 nM

COC(=O)N[C@@H](C(=O)N1CCC[C@H]1c1ncc(-c2ccc3c(c2)O[C@@H](c2ccccc2)n2c-3cc3cc(-c4cnc([C@@H]5CCCN5C(=O)[C@H](NC(=O)OC)C(C)C)[nH]4)ccc32)[nH]1)C(C)C
bioavailability [26]: 9% | half-life [27]: 4.2 h | half-life [20]: 4.7 h | bioavailability [28]: 35% | half-life [24]: 16 h | logP [8]: 8.61 | EC50 (Hepatitis C virus [1]): 0.003 nM

COC(=O)N[C@@H](C(=O)N1CCCC1c1ncc(C#CC#Cc2ccc(-c3cnc(C4CCCN4C(=O)[C@H](NC(=O)OC)C(C)C)[nH]3)cc2)[nH]1)C(C)C (single isomer, unassigned; 13b)
EC50 (Hepatitis C virus [16]): 47 nM | EC50 (Hepatitis C virus [17]): 137 nM | CC50 [18]: 298000 nM
